How the values were obtained:
[1] = biological target: T1, MycN (Homo sapiens, UniProt P04198); assay: Degradation of MycN protein in SK-N-BE(2) cells (JESS/Western blot); assay type: cell-based; settings: SKNBE2 cells, 24 h; for Dmax at 0.5 µM: read-out: % Degradation of MycN (SKNBE2) 24 h, 0.5 μM; for Dmax at 1 µM: read-out: % Degradation of MycN (SKNBE2) 24 h, 1 μM; for Dmax at 3 µM: read-out: % Degradation of MycN (SKNBE2) 24 h, 3 μM; for Dmax at 6 µM: read-out: % Degradation of MycN (SKNBE2) 24 h, 6 μM
T1 construct: endogenous in cells; host or cells: SK-N-BE(2)
T1 sequence (P04198 1-464): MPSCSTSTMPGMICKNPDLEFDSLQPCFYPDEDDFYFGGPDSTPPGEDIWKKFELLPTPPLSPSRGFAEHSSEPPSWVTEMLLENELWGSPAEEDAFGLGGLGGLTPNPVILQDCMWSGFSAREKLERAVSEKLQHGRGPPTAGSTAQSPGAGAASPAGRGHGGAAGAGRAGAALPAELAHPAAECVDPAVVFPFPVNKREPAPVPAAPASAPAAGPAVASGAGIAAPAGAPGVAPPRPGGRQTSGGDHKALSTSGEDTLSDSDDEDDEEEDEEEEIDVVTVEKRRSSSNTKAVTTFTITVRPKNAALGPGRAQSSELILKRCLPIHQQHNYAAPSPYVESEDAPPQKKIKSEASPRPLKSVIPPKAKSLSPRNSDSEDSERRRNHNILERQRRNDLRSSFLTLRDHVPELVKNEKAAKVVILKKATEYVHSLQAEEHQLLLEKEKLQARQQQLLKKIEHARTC
Experimental: (§1) For L363 cells (suspension), 1E6 cells were plated into each well of a 6 well plate. For SK—N-BE(2) cells (adherent), 5E5 cells were plated into each well of a 6 well dish. […] All compounds were diluted to 10 mM in DMSO. Cells were treated with the compound for 24 hrs, then for both cell types, media containing cells were removed from wells into a 15 ml centrifuge tube, and remaining adherent SK—N-BE(2) cells were also scraped from the wells into the appropriate tubes. Tubes were centrifuged, cells were washed with PBS then re-centrifuged to pellet cells. A RIPA buffer cocktail was added to the cells on ice for 5 mins. Cell lysates were clarified by centrifugation and stored at −80 degrees until required. BCA assay was performed on each lysate to determine the protein concentration. For validation studies of antibodies, lysates and antibodies were used at a number of concentrations (Lysates: 2, 1, 0.2 mg/ml; Antibodies: 1 in 50, 1 in 200 dilution). Once an appropriate lysate concentration and antibody concentration was determined, samples were screened in the JESS technology (Protein Simple, San Jose, CA—https://www.proteinsimple.com/jess.html). Target protein antibodies (n-myc and c-myc) were detected in the chemiluminescence channel and loading controls (tubulin and GAPDH) were detected using a Near Infra Red (NIR) labeled secondary antibody. For SK—N-EB2 adherent cells, 5E5 cells in 1.9 mls media were plated into 6 well dishes and incubated for 24 hrs. […] Cells were scrapped off the plate, centrifuged, washed with PBS, centrifuged, then a RIPA buffer cocktail added to the cells (100 ul), centrifuged and stored at −80 for later analysis. For L363 suspension cells, 1E6 cells were plated into 24 well dishes (950 ul media) and incubated for 24 hrs. […] Cells were aspirated into tubes, centrifuged, washed with PBS, centrifuged, then a RIPA buffer cocktail added to the cells (100 ul), centrifuged and stored at −80 for later analysis. For Western blot, a BCA (total protein) assay was run on all samples, these were then run in batches of 5 compounds plus control (DMSO) on each Western blot run—n-myc and c-myc were run in separate experiments in the chemiluminescence channel. Both tubulin and GAPDH were run as loading controls in all lanes in the near infra red channel.

[2] = biological target: T2, MycC (Homo sapiens, UniProt P01106); assay: Degradation of MycC protein in L363 cells (JESS/Western blot); assay type: cell-based; settings: L-363 cells, 24 h; for Dmax at 0.5 µM: read-out: % Degradation of MycC (L-363) 24 h, 0.5 μM; for Dmax at 1 µM: read-out: % Degradation of MycC (L-363) 24 h, 1 μM; for Dmax at 3 µM: read-out: % Degradation of MycC (L-363) 24 h, 3 μM; for Dmax at 6 µM: read-out: % Degradation of MycC (L-363) 24 h, 6 μM
T2 construct: endogenous in cells; host or cells: L363
T2 sequence (P01106 whole entry): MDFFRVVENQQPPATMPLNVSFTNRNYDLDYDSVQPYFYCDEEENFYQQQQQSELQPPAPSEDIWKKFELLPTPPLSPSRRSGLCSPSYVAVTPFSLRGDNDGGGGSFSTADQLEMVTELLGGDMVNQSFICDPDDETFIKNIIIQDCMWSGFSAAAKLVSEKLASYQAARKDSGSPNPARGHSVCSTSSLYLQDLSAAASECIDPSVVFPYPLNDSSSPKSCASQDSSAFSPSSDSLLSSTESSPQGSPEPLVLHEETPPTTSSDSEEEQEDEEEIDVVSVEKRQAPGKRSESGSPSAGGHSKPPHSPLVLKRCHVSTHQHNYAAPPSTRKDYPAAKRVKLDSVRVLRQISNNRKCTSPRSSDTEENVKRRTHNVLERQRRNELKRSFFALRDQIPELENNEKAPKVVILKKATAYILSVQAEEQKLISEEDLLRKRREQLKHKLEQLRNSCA
Experimental: as §1

`CN1CC2(CCC(N(C)c3nccc(Nc4cc(C5CC5)[nH]n4)n3)CC2)C1` [Compound 49, N4-(5-Cyclopropyl-1H-pyrazol-3-yl)-N2-methyl-N2-(2-methyl-2-azaspiro[3.5]nonan-7-yl)pyrimidine-2,4-diamine] showed a Dmax at 0.5 µM [1] of 50 to 79%, a Dmax at 1 µM [1] of 80 to 100% and a Dmax at 3 µM [1] of 80 to 100%. The Dmax at 6 µM [1] was 80 to 100%, the Dmax at 0.5 µM [2] was 50 to 79% and the Dmax at 1 µM [2] was 80 to 100%. For the same compound, the Dmax at 3 µM [2] was 80 to 100% and the Dmax at 6 µM [2] was 80 to 100%.
In the case of `F[C@H]1CNCC[C@H]1Nc1nccc(Nc2cc(C3CC3)[nH]n2)n1` [Compound 41, N4-(5-Cyclopropyl-1H-pyrazol-3-yl)-N2-[(3S,4R)-3-fluoro-4-piperidyl]pyrimidine-2,4-diamine], the Dmax at 0.5 µM [1] is reported as under 20%, the Dmax at 1 µM [1] is reported as under 20% and the Dmax at 3 µM [1] is reported as 20 to 49%. It also gave a Dmax at 6 µM [1] of 80 to 100% and a Dmax at 6 µM [2] of 80 to 100%.
In the case of `Cn1cc(C(=O)N2CCC(Nc3nccc(Nc4cc(C5CC5)[nH]n4)n3)CC2)nn1` [Compound 37, (4-((4-((5-Cyclopropyl-1H-pyrazol-3-yl)amino)pyrimidin-2-yl)amino)piperidin-1-yl)(1-methyl-1H-1,2,3-triazol-4-yl)methanone], the Dmax at 1 µM [1] is reported as under 20%, the Dmax at 3 µM [1] is reported as 20 to 49% and the Dmax at 6 µM [1] is reported as 20 to 49%. The Dmax at 3 µM [2] was 20 to 49% and the Dmax at 6 µM [2] was under 20%.
For `CN1CC2(CC(Nc3nccc(Nc4cc(C5CC5)[nH]n4)n3)C2)C1` [Compound 36, N^4-(5-cyclopropyl-1H-pyrazol-3-yl)-N^2-(2-methyl-2-azaspiro[3.3]heptan-6-yl)pyrimidine-2,4-diamine], the Dmax at 0.5 µM [1] was under 20%, the Dmax at 1 µM [1] was under 20% and the Dmax at 3 µM [1] was 20 to 49%. The Dmax at 6 µM [1] was 80 to 100%, the Dmax at 0.5 µM [2] was 20 to 49% and the Dmax at 1 µM [2] was 50 to 79%. The Dmax at 3 µM [2] was 20 to 49% and the Dmax at 6 µM [2] was 50 to 79%.
`CN1CC2(CC(Nc3nccc(Nc4cc(C5CCCC5)[nH]n4)n3)C2)C1` [Compound 38, N^4-(5-cyclopentyl-1H-pyrazol-3-yl)-N^2-(2-methyl-2-azaspiro[3.3]heptan-6-yl)pyrimidine-2,4-diamine] was tested, and the Dmax at 0.5 µM [1] was 20 to 49%, the Dmax at 1 µM [1] was 50 to 79% and the Dmax at 3 µM [1] was 80 to 100%. The Dmax at 6 µM [1] was 80 to 100%, the Dmax at 0.5 µM [2] was 20 to 49% and the Dmax at 1 µM [2] was 50 to 79%. For the same compound, the Dmax at 3 µM [2] was 20 to 49% and the Dmax at 6 µM [2] was 50 to 79%.
In the case of `c1cc(Nc2cc(C3CCCC3)[nH]n2)nc(NC2CCC3(CC2)CNC3)n1` [Compound 40, N^2-(2-Azaspiro[3.5]nonan-7-yl)-N^4-(5-cyclopentyl-1H-pyrazol-3-yl)pyrimidine-2,4-diamine], the Dmax at 0.5 µM [1] is reported as 50 to 79%, the Dmax at 1 µM [1] is reported as 80 to 100% and the Dmax at 3 µM [1] is reported as 80 to 100%. It also gave a Dmax at 6 µM [1] of 80 to 100%, a Dmax at 1 µM [2] of under 20% and a Dmax at 3 µM [2] of 80 to 100%. The Dmax at 6 µM [2] was 80 to 100%.

Source: patent US20250177393A1, “MODULATORS OF MYC FAMILY PROTO-ONCOGENE PROTEIN” (Nalo Therapeutics, priority 2022, published 2025)
